Measurements taken from ChEMBL document CHEMBL1955812, “New chemotypes acting as isozyme-selective carbonic anhydrase inhibitors with low affinity for the offtarget cytosolic isoform II” (Bioorg Med Chem Lett, 2012).

Columns and labels:
Carbonic anhydrase 14 [1] = biological target: T1, Carbonic anhydrase 14 (Homo sapiens, UniProt Q9ULX7); assay: Inhibition of human recombinant carbonic anhydrase 14 preincubated for 15 mins to 72 hrs measured after 6 hrs by stopped flow CO2 hydration method
Carbonic anhydrase 13 [2] = biological target: T2, Carbonic anhydrase 13 (Homo sapiens, UniProt Q8N1Q1); assay: Inhibition of human recombinant carbonic anhydrase 13 preincubated for 15 mins to 72 hrs measured after 15 mins by stopped flow CO2 hydration method
Carbonic anhydrase 7 [3] = biological target: T3, Carbonic anhydrase 7 (Homo sapiens, UniProt P43166); assay: Inhibition of human recombinant carbonic anhydrase 7 preincubated for 15 mins to 72 hrs measured after 6 hrs by stopped flow CO2 hydration method
Carbonic anhydrase 4 [4] = biological target: T4, Carbonic anhydrase 4 (Homo sapiens, UniProt P22748); assay: Inhibition of human recombinant carbonic anhydrase 4 preincubated for 15 mins to 72 hrs measured after 6 hrs by stopped flow CO2 hydration method
Carbonic anhydrase 9 [5] = biological target: T5, Carbonic anhydrase 9 (Homo sapiens, UniProt Q16790); assay: Inhibition of human recombinant carbonic anhydrase 9 preincubated for 15 mins to 72 hrs measured after 15 mins by stopped flow CO2 hydration method
Carbonic anhydrase 7 [6] = biological target: T3, Carbonic anhydrase 7; assay: Inhibition of human recombinant carbonic anhydrase 7 preincubated for 15 mins to 72 hrs measured after 15 mins by stopped flow CO2 hydration method
Carbonic anhydrase 9 [7] = biological target: T5, Carbonic anhydrase 9; assay: Inhibition of human recombinant carbonic anhydrase 9 preincubated for 15 mins to 72 hrs measured after 6 hrs by stopped flow CO2 hydration method
Carbonic anhydrase 2 [8] = biological target: T6, Carbonic anhydrase 2 (Homo sapiens, UniProt P00918); assay: Inhibition of human recombinant carbonic anhydrase 2 preincubated for 15 mins to 72 hrs measured after 15 mins by stopped flow CO2 hydration method
Carbonic anhydrase 3 [9] = biological target: T7, Carbonic anhydrase 3 (Homo sapiens, UniProt P07451); assay: Inhibition of human recombinant carbonic anhydrase 3 preincubated for 15 mins to 72 hrs measured after 6 hrs by stopped flow CO2 hydration method
Carbonic anhydrase 2 [10] = biological target: T6, Carbonic anhydrase 2; assay: Inhibition of human recombinant carbonic anhydrase 2 preincubated for 15 mins to 72 hrs measured after 6 hrs by stopped flow CO2 hydration method
Carbonic anhydrase 6 [11] = biological target: T8, Carbonic anhydrase 6 (Homo sapiens, UniProt P23280); assay: Inhibition of human recombinant carbonic anhydrase 6 preincubated for 15 mins to 72 hrs measured after 15 mins by stopped flow CO2 hydration method
[12] = biological target: T9, Carbonic anhydrase 5B, mitochondrial (Homo sapiens, UniProt Q9Y2D0); assay: Inhibition of human recombinant carbonic anhydrase 5B preincubated for 15 mins to 72 hrs measured after 6 hrs by stopped flow CO2 hydration method
Carbonic anhydrase 4 [13] = biological target: T4, Carbonic anhydrase 4; assay: Inhibition of human recombinant carbonic anhydrase 4 preincubated for 15 mins to 72 hrs measured after 15 mins by stopped flow CO2 hydration method
Carbonic anhydrase 3 [14] = biological target: T7, Carbonic anhydrase 3; assay: Inhibition of human recombinant carbonic anhydrase 3 preincubated for 15 mins to 72 hrs measured after 15 mins by stopped flow CO2 hydration method
Carbonic anhydrase 1 [15] = biological target: T10, Carbonic anhydrase 1 (Homo sapiens, UniProt P00915); assay: Inhibition of human recombinant carbonic anhydrase 1 preincubated for 15 mins to 72 hrs measured after 15 mins by stopped flow CO2 hydration method
[16] = biological target: T9, Carbonic anhydrase 5B, mitochondrial; assay: Inhibition of human recombinant carbonic anhydrase 5B preincubated for 15 mins to 72 hrs measured after 15 mins by stopped flow CO2 hydration method
Carbonic anhydrase 13 [17] = biological target: T2, Carbonic anhydrase 13; assay: Inhibition of human recombinant carbonic anhydrase 13 preincubated for 15 mins to 72 hrs measured after 6 hrs by stopped flow CO2 hydration method
[18] = biological target: T11, Carbonic anhydrase 5A, mitochondrial (Homo sapiens, UniProt P35218); assay: Inhibition of human recombinant carbonic anhydrase 5A preincubated for 15 mins to 72 hrs measured after 6 hrs by stopped flow CO2 hydration method
Carbonic anhydrase 12 [19] = biological target: T12, Carbonic anhydrase 12 (Homo sapiens, UniProt O43570); assay: Inhibition of human recombinant carbonic anhydrase 12 preincubated for 15 mins to 72 hrs measured after 6 hrs by stopped flow CO2 hydration method
Carbonic anhydrase 6 [20] = biological target: T8, Carbonic anhydrase 6; assay: Inhibition of human recombinant carbonic anhydrase 6 preincubated for 15 mins to 72 hrs measured after 6 hrs by stopped flow CO2 hydration method
Carbonic anhydrase 12 [21] = biological target: T12, Carbonic anhydrase 12; assay: Inhibition of human recombinant carbonic anhydrase 12 preincubated for 15 mins to 72 hrs measured after 15 mins by stopped flow CO2 hydration method
Carbonic anhydrase 14 [22] = biological target: T1, Carbonic anhydrase 14; assay: Inhibition of human recombinant carbonic anhydrase 14 preincubated for 15 mins to 72 hrs measured after 15 mins by stopped flow CO2 hydration method
Carbonic anhydrase 1 [23] = biological target: T10, Carbonic anhydrase 1; assay: Inhibition of human recombinant carbonic anhydrase 1 preincubated for 15 mins to 72 hrs measured after 6 hrs by stopped flow CO2 hydration method
[24] = biological target: T11, Carbonic anhydrase 5A, mitochondrial; assay: Inhibition of human recombinant carbonic anhydrase 5A preincubated for 15 mins to 72 hrs measured after 15 mins by stopped flow CO2 hydration method
[25] = tested as the Zn salt or complex

T4 sequence (P22748 whole entry): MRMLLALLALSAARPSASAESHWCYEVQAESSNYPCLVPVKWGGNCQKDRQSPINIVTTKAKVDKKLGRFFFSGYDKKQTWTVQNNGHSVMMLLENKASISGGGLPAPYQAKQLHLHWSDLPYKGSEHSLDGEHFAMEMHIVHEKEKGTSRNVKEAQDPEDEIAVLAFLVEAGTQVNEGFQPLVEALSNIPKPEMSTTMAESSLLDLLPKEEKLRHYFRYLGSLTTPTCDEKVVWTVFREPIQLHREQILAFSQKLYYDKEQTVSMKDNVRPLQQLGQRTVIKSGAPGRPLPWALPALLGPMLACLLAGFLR
T2 sequence (Q8N1Q1 whole entry): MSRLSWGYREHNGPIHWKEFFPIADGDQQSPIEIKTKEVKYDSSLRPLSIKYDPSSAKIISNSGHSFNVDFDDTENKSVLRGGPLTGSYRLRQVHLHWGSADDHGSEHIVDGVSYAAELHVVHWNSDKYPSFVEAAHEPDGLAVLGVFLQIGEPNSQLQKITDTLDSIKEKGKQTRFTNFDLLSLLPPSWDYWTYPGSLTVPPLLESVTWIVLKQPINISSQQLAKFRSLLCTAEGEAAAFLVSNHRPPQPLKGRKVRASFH
T11 sequence (P35218 whole entry): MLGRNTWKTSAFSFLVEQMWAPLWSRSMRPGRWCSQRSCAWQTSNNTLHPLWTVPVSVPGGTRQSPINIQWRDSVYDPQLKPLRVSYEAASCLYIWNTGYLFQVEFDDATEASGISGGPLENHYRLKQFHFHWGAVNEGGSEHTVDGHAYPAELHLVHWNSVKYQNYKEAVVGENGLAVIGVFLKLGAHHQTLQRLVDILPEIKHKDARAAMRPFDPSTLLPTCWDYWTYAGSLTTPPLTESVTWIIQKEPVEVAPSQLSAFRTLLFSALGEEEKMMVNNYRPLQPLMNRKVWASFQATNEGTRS
T12 sequence (O43570 whole entry): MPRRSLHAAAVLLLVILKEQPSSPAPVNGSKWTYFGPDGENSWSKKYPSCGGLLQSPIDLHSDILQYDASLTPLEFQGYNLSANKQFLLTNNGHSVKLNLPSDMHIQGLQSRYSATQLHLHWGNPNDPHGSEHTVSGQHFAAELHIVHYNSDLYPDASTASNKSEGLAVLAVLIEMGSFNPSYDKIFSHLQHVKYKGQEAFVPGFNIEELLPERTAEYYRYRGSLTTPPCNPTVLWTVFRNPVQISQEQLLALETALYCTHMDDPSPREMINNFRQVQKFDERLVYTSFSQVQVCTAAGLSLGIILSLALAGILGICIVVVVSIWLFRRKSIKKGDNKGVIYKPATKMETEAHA
T7 sequence (P07451 whole entry): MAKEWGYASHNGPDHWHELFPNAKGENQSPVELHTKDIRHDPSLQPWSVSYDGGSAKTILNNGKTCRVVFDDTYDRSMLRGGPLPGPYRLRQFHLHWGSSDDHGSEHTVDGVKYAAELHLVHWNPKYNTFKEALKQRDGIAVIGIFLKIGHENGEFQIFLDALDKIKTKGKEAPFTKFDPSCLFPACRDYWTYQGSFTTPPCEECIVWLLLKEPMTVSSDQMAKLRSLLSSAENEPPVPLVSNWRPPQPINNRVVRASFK
T1 sequence (Q9ULX7 whole entry): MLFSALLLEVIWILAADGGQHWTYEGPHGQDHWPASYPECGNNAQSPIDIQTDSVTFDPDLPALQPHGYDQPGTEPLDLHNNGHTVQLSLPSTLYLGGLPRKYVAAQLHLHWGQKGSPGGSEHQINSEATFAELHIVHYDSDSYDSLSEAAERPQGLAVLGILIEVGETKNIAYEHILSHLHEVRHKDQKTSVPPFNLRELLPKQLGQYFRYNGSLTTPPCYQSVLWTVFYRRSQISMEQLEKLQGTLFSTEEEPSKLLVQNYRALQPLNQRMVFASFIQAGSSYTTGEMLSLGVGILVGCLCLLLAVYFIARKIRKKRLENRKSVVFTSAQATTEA
T9 sequence (Q9Y2D0 whole entry): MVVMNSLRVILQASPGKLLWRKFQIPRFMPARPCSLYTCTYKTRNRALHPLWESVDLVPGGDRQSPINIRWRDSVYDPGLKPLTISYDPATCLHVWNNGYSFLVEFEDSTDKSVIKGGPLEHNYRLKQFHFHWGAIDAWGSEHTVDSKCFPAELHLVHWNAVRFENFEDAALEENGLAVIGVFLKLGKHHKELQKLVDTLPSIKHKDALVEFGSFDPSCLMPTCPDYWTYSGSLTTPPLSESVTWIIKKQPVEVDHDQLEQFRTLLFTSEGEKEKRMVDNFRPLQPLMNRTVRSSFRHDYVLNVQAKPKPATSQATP
T10 sequence (P00915 whole entry): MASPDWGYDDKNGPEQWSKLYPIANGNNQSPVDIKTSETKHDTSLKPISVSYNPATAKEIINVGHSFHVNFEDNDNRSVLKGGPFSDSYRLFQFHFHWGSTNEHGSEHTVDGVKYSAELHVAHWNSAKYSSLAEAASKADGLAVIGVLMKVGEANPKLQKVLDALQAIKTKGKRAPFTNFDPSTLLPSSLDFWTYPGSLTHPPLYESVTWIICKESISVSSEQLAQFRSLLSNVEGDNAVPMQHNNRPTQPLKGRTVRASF
T8 sequence (P23280 whole entry): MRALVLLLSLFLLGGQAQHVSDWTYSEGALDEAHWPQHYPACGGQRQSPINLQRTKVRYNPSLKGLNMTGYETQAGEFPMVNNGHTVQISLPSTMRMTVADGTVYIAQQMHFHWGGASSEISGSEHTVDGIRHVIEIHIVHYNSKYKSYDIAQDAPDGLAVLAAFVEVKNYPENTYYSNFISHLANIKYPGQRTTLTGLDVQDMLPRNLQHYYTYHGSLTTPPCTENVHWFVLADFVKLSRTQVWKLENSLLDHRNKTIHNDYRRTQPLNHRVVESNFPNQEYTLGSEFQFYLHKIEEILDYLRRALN
T3 sequence (P43166 whole entry): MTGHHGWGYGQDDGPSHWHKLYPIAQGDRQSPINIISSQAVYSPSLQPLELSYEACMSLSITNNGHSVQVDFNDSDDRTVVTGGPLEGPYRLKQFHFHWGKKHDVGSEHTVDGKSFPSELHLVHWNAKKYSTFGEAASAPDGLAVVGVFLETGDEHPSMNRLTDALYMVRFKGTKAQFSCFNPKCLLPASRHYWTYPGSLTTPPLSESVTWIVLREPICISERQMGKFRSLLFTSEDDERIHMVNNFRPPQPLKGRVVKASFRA

Q: With Oc1ccc2ccccc2n1 as the compound, how does the Ki (Carbonic anhydrase 14 [1]) read?
A: Its Ki is 0.036 µM.

Q: And the Ki (Carbonic anhydrase 13 [2])?
A: Its Ki is 0.065 µM.

Q: What about the Ki (Carbonic anhydrase 7 [3]) of the same compound?
A: Its Ki is 0.42 µM.

Q: And the Ki (Carbonic anhydrase 4 [4])?
A: Its Ki is 0.36 µM.

Q: And the Ki (Carbonic anhydrase 9 [5])?
A: The Ki was 0.082 µM.

Q: And the Ki (Carbonic anhydrase 7 [6])?
A: The Ki was 0.42 µM.

Q: What about the Ki (Carbonic anhydrase 9 [7]) of the same compound?
A: The Ki was 0.082 µM.

Q: What about the Ki (Carbonic anhydrase 2 [8]) of the same compound?
A: The Ki was over 200 µM.

Q: What about the Ki (Carbonic anhydrase 3 [9]) of the same compound?
A: The Ki was 0.57 µM.

Q: What about the Ki (Carbonic anhydrase 2 [10]) of the same compound?
A: Its Ki is over 200 µM.

Q: And the Ki (Carbonic anhydrase 6 [11])?
A: Its Ki is 0.033 µM.

Q: And the Ki [12]?
A: Its Ki is 0.75 µM.

Q: What about the Ki (Carbonic anhydrase 4 [13]) of the same compound?
A: Its Ki is 0.36 µM.

Q: What about the Ki (Carbonic anhydrase 3 [14]) of the same compound?
A: The Ki was 0.57 µM.

Q: What about the Ki (Carbonic anhydrase 1 [15]) of the same compound?
A: The Ki was 6.23 µM.

Q: What about the Ki [16] of the same compound?
A: Its Ki is 0.75 µM.

Q: What about the Ki (Carbonic anhydrase 13 [17]) of the same compound?
A: The Ki was 0.065 µM.

Q: What about the Ki [18] of the same compound?
A: The Ki was 0.41 µM.

Q: What about the Ki (Carbonic anhydrase 12 [19]) of the same compound?
A: The Ki was 0.093 µM.

Q: What about the Ki (Carbonic anhydrase 6 [20]) of the same compound?
A: Its Ki is 0.033 µM.

Q: What about the Ki (Carbonic anhydrase 12 [21]) of the same compound?
A: Its Ki is 0.093 µM.

Q: And the Ki (Carbonic anhydrase 14 [22])?
A: Its Ki is 0.036 µM.

Q: And the Ki (Carbonic anhydrase 1 [23])?
A: Its Ki is 6.23 µM.

Q: What about the Ki [24] of the same compound?
A: The Ki was 0.41 µM.

Q: With Cc1cc(C)o/c(=N/O)c1 as the compound, how does the Ki (Carbonic anhydrase 7 [3]) read?
A: The Ki was 0.27 µM.

Q: And the Ki (Carbonic anhydrase 9 [7])?
A: Its Ki is 0.016 µM.

Q: And the Ki (Carbonic anhydrase 2 [10])?
A: The Ki was over 200 µM.

Q: What about the Ki (Carbonic anhydrase 12 [19]) of the same compound?
A: Its Ki is 0.064 µM.

Q: And the Ki (Carbonic anhydrase 1 [23])?
A: Its Ki is 0.009 µM.

Q: Which results are given for O/N=c1/ccc2ccccc2o1?
A: Ki (Carbonic anhydrase 7 [3]): 0.84 µM; Ki (Carbonic anhydrase 9 [7]): 0.058 µM; Ki (Carbonic anhydrase 2 [10]): > 200 µM; Ki (Carbonic anhydrase 12 [19]): 0.054 µM; Ki (Carbonic anhydrase 1 [23]): 0.009 µM

Q: What does the source list for CCOP(=S)(OCC)Oc1ccc2c(C)c(Cl)c(=O)oc2c1 [COUMAPHOS]?
A: Ki (Carbonic anhydrase 14 [1]): 4.14 µM; Ki (Carbonic anhydrase 7 [3]): 4.68 µM; Ki (Carbonic anhydrase 4 [4]): 5.48 µM; Ki (Carbonic anhydrase 9 [7]): 6.41 µM; Ki (Carbonic anhydrase 3 [9]): 4.62 µM; Ki (Carbonic anhydrase 2 [10]): > 200 µM; Ki [12]: 3.41 µM; Ki (Carbonic anhydrase 13 [17]): 4.23 µM; Ki [18]: 5.09 µM; Ki (Carbonic anhydrase 12 [19]): 9.52 µM; Ki (Carbonic anhydrase 6 [20]): 2.23 µM; Ki (Carbonic anhydrase 1 [23]): 61.7 µM

Q: Which results are given for O=c1ccc2ccccc2o1 [COUMARIN]?
A: Ki (Carbonic anhydrase 7 [3]): > 200 µM; Ki (Carbonic anhydrase 4 [4]): 62.3 µM; Ki (Carbonic anhydrase 3 [9]): > 200 µM; Ki (Carbonic anhydrase 13 [17]): > 200 µM

Q: What does the source list for [O-][n+]1ccccc1S [PYRITHIONE ZINC]?
A: Ki (Carbonic anhydrase 14 [1]; [25]): 2.91 µM; Ki (Carbonic anhydrase 13 [2]; [25]): 4.15 µM; Ki (Carbonic anhydrase 7 [3]; [25]): 7.76 µM; Ki (Carbonic anhydrase 4 [4]; [25]): 6.13 µM; Ki (Carbonic anhydrase 9 [5]; [25]): 1.72 µM; Ki (Carbonic anhydrase 7 [6]; [25]): 7.76 µM; Ki (Carbonic anhydrase 9 [7]; [25]): 1.72 µM; Ki (Carbonic anhydrase 2 [8]; [25]): > 200 µM; Ki (Carbonic anhydrase 3 [9]; [25]): 1.62 µM; Ki (Carbonic anhydrase 2 [10]; [25]): > 200 µM; Ki (Carbonic anhydrase 6 [11]; [25]): 2.41 µM; Ki [12, 25]: 3.55 µM; Ki (Carbonic anhydrase 4 [13]; [25]): 6.13 µM; Ki (Carbonic anhydrase 3 [14]; [25]): 1.62 µM; Ki (Carbonic anhydrase 1 [15]; [25]): > 200 µM; Ki [16, 25]: 3.55 µM; Ki (Carbonic anhydrase 13 [17]; [25]): 4.15 µM; Ki [18, 25]: 5.12 µM; Ki (Carbonic anhydrase 12 [19]; [25]): 5.4 µM; Ki (Carbonic anhydrase 6 [20]; [25]): 2.41 µM; Ki (Carbonic anhydrase 12 [21]; [25]): 5.4 µM; Ki (Carbonic anhydrase 14 [22]; [25]): 2.91 µM; Ki (Carbonic anhydrase 1 [23]; [25]): > 200 µM; Ki [24, 25]: 5.12 µM

Q: How did the Ki (Carbonic anhydrase 7 [3]) turn out when O=C(S)c1ccccc1 [THIOBENZOIC ACID] was run?
A: The Ki was 5.74 µM.

Q: And the Ki (Carbonic anhydrase 9 [5])?
A: The Ki was 5.64 µM.

Q: What about the Ki (Carbonic anhydrase 7 [6]) of the same compound?
A: The Ki was 5.74 µM.

Q: What about the Ki (Carbonic anhydrase 9 [7]) of the same compound?
A: Its Ki is 5.64 µM.

Q: What about the Ki (Carbonic anhydrase 2 [8]) of the same compound?
A: The Ki was 51 µM.

Q: And the Ki (Carbonic anhydrase 2 [10])?
A: Its Ki is 51 µM.

Q: What about the Ki (Carbonic anhydrase 1 [15]) of the same compound?
A: The Ki was 10.8 µM.

Q: And the Ki (Carbonic anhydrase 12 [19])?
A: Its Ki is 2.77 µM.

Q: What about the Ki (Carbonic anhydrase 12 [21]) of the same compound?
A: Its Ki is 2.77 µM.

Q: What about the Ki (Carbonic anhydrase 1 [23]) of the same compound?
A: Its Ki is 10.8 µM.
